Experimental data taken from patent US20160067298A1, “MUSCADINE GRAPE SKIN EXTRACT AS TREATMENT FOR BONE METASTATIC CANCER” (Clark Atlanta University, priority 2014, published 2016).
Entries after “also recorded” stand apart in the source; their conditions may differ. Peptide text beside a SMILES is read from it. * marks the point of attachment. Cbz = O=C(OCc1ccccc1)*

How the values were obtained:
[1] = test system: ARCaP-Snail/MCF-7 Snail co-cultured with spleen macrophages; test: In vitro osteoclastogenesis assay (TRAP staining of mature osteoclasts); type: cell-based, human; settings: vs untreated control
Description: We obtained MSKE from Dr Tamaro Hudson, our collaborator from Howard University and used it to perform osteoclastogenesis assay on prostate and breast cancer cell lines, including one in which Snail, a transcription factor, is overexpressed. 3×10^3 ARCaP-Neo/MCF-7 Neo or ARCaP-Snail/ MCF-7 Snail was co-cultured with 40×10^4 spleen macrophages in 48-well plates plus 1 ng/ml M-CSF plus or minus 5 μg/ml MSKE, 20 μg/ml MSKE, and 5 μM Z-FY-CHO CatL inhibitor.
The cells were fed every three days by replacing half the media with fresh media plus or minus MSKE or Z-FY-CHO. Macrophages alone were utilized as a negative control. After 7-14 days the cells were fixed with 3% formaldehyde and processed for TRAP staining according to manufacturer instructions, to visualize the formation of mature osteoclasts.
3×10^3 ARCaP-Neo/MCF-7 Neo or ARCaP-Snail/MCF-7 Snail was co-cultured with 40×10^4 spleen macrophages in 48-well plates plus 1 ng/ml M-CSF plus or minus 5 μg/mL MSKE, 20 μg/mL MSKE or […] Z-FY-CHO Cat L inhibitor. […]
3×10^3 or 1×10^3 prostate cancer cells overexpressing Snail (see FIG. 5) and breast cancer cells overexpressing Snail (FIG. 6) were co-cultured with 40×10^4 Macrophages for 14 days and treated with 50 ng/mL osteoprotogerin (control), 5 μM Z-FY-CHO, 5 μg/mL or 20 μg/ML MSKE. […] Osteoclasts were determined by having 3 or more nuclei (FIGS. 5 and 6 insets). […]

Cathepsin L (CatL) = target: T1, Cathepsin L (CatL) (Homo sapiens, UniProt P07711); test: Cathepsin gelatin zymography of conditioned media; type: cell-based; settings: 5 μM Z-FY-CHO, 72 h; vs untreated control
T1 construct: endogenous in cells; host or cells: conditioned media of ARCaP-E Snail, MCF-7 Snail and C4-2 cells
Description: We also performed cathepsin zymography to detect cathepsin activity in untreated control and MSKE treatments. ARCaPE and MCF-7 cells over expressing Snail were treated with MSKE for 3 days using the condition media from the […]. With these steps we were able to detect higher CatL activity (enzymes hydrolyze the embedded substrate in situ, and proteolytic activity can be visualized as cleared bands) in cells overexpressing Snail as compared to Neo empty vector control cells.
We utilized the cathepsin zymography technique as previously described. Briefly, 1 mL of conditioned media (CM) containing 0.1 mM leupeptin was concentrated utilizing vivaspin tube (GE Health Care). The concentrated CM was diluted by adding […] of the sample to 45 μl of 1× RIPA buffer followed by determination of the protein concentration using BCA protein assay kit. […] Cathepsin activity was subsequently quantified using densitometry (NIH Image J). […]
(§1) The expression levels of Snail, mature CatL, STAT-3 and Phospho-STAT-3 (pstat-3) were determined with western blot. […] Mature Cathepsin L activity was determined by gelatin zymography. Cathepsin L activity was quantified with densitometry of each band on the gel. […]

Snail = test: Western blot analysis, Snail; type: cell-based, human; settings: 5 μM Z-FY-CHO, 72 h
Description: (§2) We also performed Western blot analysis of whole cell lysates obtained from untreated control and MSKE treatments. ARCaPE and MCF-7 cells over expressing Snail were treated with MSKE for 3 days, and probed for Snail, phosph-STAT-3 (p-STAT3), and […] Western blot analysis.
(§3) Cells were lysed in a modified RIPA buffer (50 mM Tris pH 8.0, 150 mM NaCl, 0.02% NaN3, 0.1% SDS, 1% NP-40, 0.5% sodium deoxycholate) containing 1.5× protease inhibitor cocktail, 1 mM phenylmethylsufonyl fluoride (PMSF), and 1 mM sodium orthovanadate. Whole cell lysates were freeze-thawed at −80° C./4° C. for three cycles, then centrifuged at 13,000 rpm for 30 min at 4° C. Supernatants were collected and quantified using a micro BCA assay (Promega, Madison, Wis.). 40 μg of cell lysate was resolved using 10% SDS PAGE, followed by transblotting onto nitrocellulose membrane (Bio-Rad Laboratories, Hercules, Calif.). Membranes were blocked with 3% milk (TBS-T containing 3% milk), then washed and incubated with primary antibody dilution buffer. […]
as §1

p-STAT-3 = test: Western blot analysis, phospho-STAT-3; type: cell-based, human; settings: 5 μM Z-FY-CHO, 72 h
Description: as §2, §3, §1

mature CatL = test: Western blot analysis, mature CatL; type: cell-based, human; settings: 5 μM Z-FY-CHO, 72 h
Description: as §2, §3, §1

[2] = test system: MCF-7 and ARCaP-E cells over expressing Snail; test: In vitro cell migration assay (collagen I transwell); type: cell-based, human; settings: 5 μM Z-FY-CHO for 72 hours; migration 5 hours
Description: We utilized Costar 24-well plates containing a polycarbonate filter insert with an 8-μm pore size, to coat with 4.46 μg/μl rat tail collagen I on the outside for 24 h at 4° C. 5×10^4 cells were plated in the upper chamber containing RPMI supplemented with 0.1% fetal bovine serum (FBS) while the lower chamber contained RPMI supplemented with 10% FBS. After 5 h, cells that migrated to the bottom of the insert were fixed, stained with 0.05% crystal violet, and counted to obtain the relative cell migration.
FIGS. 4A and 4B show MCF-7 and ARCaP-E cells over expressing Snail treated with 5 μg/mL, 20 μg/mL Muscadine Grape Skin Extract (MSKE) and 5 μM Z-FY-CHO for 72 hours. 5×10^4 cells were plated on transwell coated with Type-I collagen as described in the materials and methods section. The cells were allowed to migrate for 5 hours and then fixed and stained. The number of cells that migrated through the transwell membranes was determined by counting at least 4 random microscopic fields.

[3] = test system: MCF-7 and ARCaP-E cells over expressing Snail; test: In vitro cell invasion assay (Matrigel); type: cell-based, human; settings: 5 μM Z-FY-CHO for 72 hours; invasion 24 hours
Description: The invasive properties of the cell lines were measured using the BD BioCoat Matrigel Invasion guidelines. Briefly, Boyden chamber inserts (Thermo Fisher Scientific, Waltham, Mass., USA) were coated with 40 μl 1:4 Matrigel and allowed to solidify at 37° C. for 1 h. 5×10^4 cells were seeded in triplicate in 0.1% FBS, while the lower chamber contained 10% FBS. Cells were allowed to invade through the porous membrane coated with Matrigel at 37° C. for 24-72 h. Inserts were fixed, stained with 0.05% crystal violet. Cell counts were performed for the determination of relative cell invasion.
FIGS. 4C and 4D represent cell invasion of the same cell lines. 5×10^4 cells were plated on transwells coated with Matrigel. Cell invasion was allowed to take place for 24 hours. The number of cells that invaded through the transwell membranes were determined by counting at least 4 random microscopic fields. Compared to neo empty vector cells overexpressing Snail represent an increase in migration and invasion. MSKE and Z-FY-CHO decrease migratory and invasive cells. Asterisks represent p-value of statistical significance (n=3, ***p<0.001, **p<0.01, *p<0.05). Values were normalized to untreated controls and the mean±SEM of data were obtained from three independent replicate experiments with at least three wells per treatment group in each individual replicate. Statistical analysis was done with Student t test.

rat bone cells = settings: by inhibiting collagen degradation; cited from earlier work

T1 sequence (P07711 114-333): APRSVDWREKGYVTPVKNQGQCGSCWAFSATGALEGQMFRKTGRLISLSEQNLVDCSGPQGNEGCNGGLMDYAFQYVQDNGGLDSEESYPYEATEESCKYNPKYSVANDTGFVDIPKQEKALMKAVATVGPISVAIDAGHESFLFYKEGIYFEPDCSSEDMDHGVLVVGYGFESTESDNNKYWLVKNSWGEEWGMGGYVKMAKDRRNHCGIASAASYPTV

For `O=C[C@H](Cc1ccc(O)cc1)NC(=O)[C@H](Cc1ccccc1)NC(=O)OCc1ccccc1` [Z-FY-CHO] (Cbz-Phe-Tyr-aldehyde), which formation of osteoclasts ([1]; 5 μM Z-FY-CHO, prostate and breast cancer cells overexpressing Snail co-cultured with macrophages) is on record?
Its formation of osteoclasts is “significantly decrease; also recorded: significantly abrogated”.

And the “amount of active CatL (CatL activity)” value (Cathepsin L (CatL))?
The value was “significantly decreased; also recorded: decrease”.

What about the Snail expression (Snail) of the same molecule?
The Snail expression was “decrease”.

And the “STAT-3 activation (p-STAT-3)” value (p-STAT-3)?
The value was “decrease”.

What about the “Cat L expression” value (mature CatL) of the same molecule?
Its value is “decrease”.

What about the cell migration [2] of the same molecule?
The cell migration was “abrogated; also recorded: decrease”.

What about the cell invasion [3] of the same molecule?
Its cell invasion is “abrogated; also recorded: decrease”.

And the bone resorption (rat bone cells)?
The bone resorption was “inhibit”.

B1: OPG: Osteoprotegerin, decoy receptor that binds RANKL; used as control in osteoclastogenesis assay (protein, UniProt O00300 22-401, looked up)
Tumor necrosis factor …: ETFPPKYLHYDEETSHQLLCDKCPPGTYLKQHCTAKWKTVCAPCPDHYYTDSWHTSDECLYCSPVCKELQYVKQECNRTHNRVCECKEGRYLEIEFCLKHRSCPPGFGVVQAGTPERNTVCKRCPDGFFSNETSSKAPCRKHTNCSVFGLLLTQKGNATHDNICSGNSESTQKCGIDVTLCEEAFFRFAVPTKFTPNWLSVLVDNLPGTKVNAESVERIKRQHSSQEQTFQLLKLWKHQNKDQDIVKKIIQDIDLCENSVQRHIGHANLTFEQLRSLMESLPGKKVGAEDIEKTIKACKPSDQILKLLSLWRIKNGDQDTLKGLMHALKHSKTYHFPKTVTQSLKKTIRFLHSFTMYKLYQKLFLEMIGNQVQSVKISCL
With B1 as the molecule, how does the formation of osteoclasts ([1]; 50 ng/ml OPG) read?
The formation of osteoclasts was “significantly decreased”.
